In the assay the test system is Plasmodium berghei. The assay is described as follows: Luciferase/luciferin-expressing antifolate-resistant parasites were used to infect a culture of HepG2 cells that were pre-incubated with compounds. Infected hepatocytes emit light due to the luciferase reaction. Assay results are presented as the percent inhibition of light emission compared to control. […]. It is filed as functional. Conditions: sporozoite; for IC90: read-out: LUCIFERASE INFECTION ASSAY - IC90.

A value given as a limit tells only on which side of the number the result lay.

Usually IC50 stands for the midpoint of a concentration-inhibition curve. By IC90 is commonly meant the concentration at which the effect reaches the 90% level. `CCCCNC(=O)c1c(NC(=O)COc2ccccc2)nc2ccccn12`: the IC90 was greater than 9.01 µM. Further, for the setting “FFLUC_HILL_SLOPE 15.1, FFLUC_R_SQUARED 0.601, PBLUC_HILL_SLOPE 2.91, PBLUC_R_SQUARED 0.515, read-out: LUCIFERASE INFECTION ASSAY - IC50”, the IC50 was 5.13 µM.

With `Clc1ccc(-c2cnc3cnc(-c4ccco4)cn23)cc1`, the IC90 was greater than 11.2 µM. Moreover, the IC50 (FFLUC_HILL_SLOPE 15, FFLUC_R_SQUARED 0.745, PBLUC_HILL_SLOPE 1.06, PBLUC_R_SQUARED 0.544, read-out: LUCIFERASE INFECTION ASSAY - IC50) came out at 7.89 µM.

In the case of `Cc1c(C(=O)C(F)(F)F)c(-c2nn(-c3ccccc3)c(NC(=O)C(F)(F)F)c2C(=O)C(F)(F)F)c(C)n1-c1ccc(Br)cc1`, the IC90 was greater than 10 µM. Further, where the note is “FFLUC_HILL_SLOPE 15.1, FFLUC_R_SQUARED 0.397, PBLUC_HILL_SLOPE 2.07, PBLUC_R_SQUARED 0.0694, read-out: LUCIFERASE INFECTION ASSAY - IC50”, the IC50 came out at 6.64 µM.

Regarding `COC(=O)c1ccc(O)c(CSc2ccc(Cl)cc2)c1`, the IC90 was greater than 10.7 µM. Moreover, under “FFLUC_HILL_SLOPE 15.4, FFLUC_R_SQUARED 0.267, PBLUC_HILL_SLOPE 7.94, PBLUC_R_SQUARED 0.227, read-out: LUCIFERASE INFECTION ASSAY - IC50”, the IC50 was determined as 8.54 µM.

Take `N#Cc1ccc(/C=C(\c2nc3ccccc3[nH]2)c2nc3ccccc3s2)cc1`: the IC90 was 1.53 µM. Besides, for the setting “FFLUC_HILL_SLOPE 15, FFLUC_R_SQUARED 0.447, HEPG2TOX_HILL_SLOPE 15.3, HEPG2TOX_R_SQUARED 0.806, PBLUC_HILL_SLOPE 8.27, PBLUC_R_SQUARED 0.505, read-out: LUCIFERASE INFECTION ASSAY - IC50”, the IC50 stood at 1.17 µM.

As for `Cc1oc2cc(OCC(=O)N3CCc4ccccc43)ccc2c(=O)c1-c1c(F)cccc1Cl`, the IC90 was greater than 10 µM. Besides, the IC50 (FFLUC_HILL_SLOPE 15.3, FFLUC_R_SQUARED 0.621, read-out: LUCIFERASE INFECTION ASSAY - IC50) was greater than 10 µM.

Turning to `CCCNC(=O)c1c(NC(=O)c2ccc(C)cc2)nc2ccc(C)cn12`, the IC90 is 4.76 µM. Besides, the IC50 (FFLUC_HILL_SLOPE 15.6, FFLUC_R_SQUARED 0.337, HEPG2TOX_HILL_SLOPE 1.6, HEPG2TOX_R_SQUARED 0.209, PBLUC_HILL_SLOPE 10.4, PBLUC_R_SQUARED 0.336, read-out: LUCIFERASE INFECTION ASSAY - IC50) turned out to be 3.85 µM.

As for `Fc1ccc(/N=c2\scc(-c3ccc4c(c3)OCCO4)n2C2CCCC2)cc1`, the IC90 is 1.58 µM. The IC50 (FFLUC_HILL_SLOPE 15, FFLUC_R_SQUARED 0.34, HEPG2TOX_HILL_SLOPE 7.4, HEPG2TOX_R_SQUARED 0.523, PBLUC_HILL_SLOPE 11.6, PBLUC_R_SQUARED 0.501, read-out: LUCIFERASE INFECTION ASSAY - IC50) worked out at 1.31 µM.

For the molecule `CCN(CC)c1ccc(NC(=O)c2cccc(N3C(=O)c4ccccc4C3=O)c2)cc1S(=O)(=O)Nc1ccccc1OC`, the IC90 is greater than 10 µM. Also, the IC50 (FFLUC_HILL_SLOPE 15.4, FFLUC_R_SQUARED 0.773, PBLUC_HILL_SLOPE 13.2, PBLUC_R_SQUARED 0.21, read-out: LUCIFERASE INFECTION ASSAY - IC50) came to 9.38 µM.

As for `O=C(N/N=C/c1cccc(O)c1O)c1ccc(CN2c3cccc4cccc(c34)S2(=O)=O)cc1`, the IC90 was greater than 10 µM. The IC50 (FFLUC_HILL_SLOPE 14.9, FFLUC_R_SQUARED 0.808, read-out: LUCIFERASE INFECTION ASSAY - IC50) was greater than 10 µM.

As for `Cc1ccc(/N=C2\SCC(C)N2C(=O)c2ccccc2SCC(=O)NCC2CCCCC2)c(C)c1` (stereo unspecified), the IC90 is greater than 10 µM. Also, where the note is “FFLUC_HILL_SLOPE 15, FFLUC_R_SQUARED 0.0481, HEPG2TOX_HILL_SLOPE 2.13, HEPG2TOX_R_SQUARED 0.879, PBLUC_HILL_SLOPE 4.29, PBLUC_R_SQUARED 0.235, read-out: LUCIFERASE INFECTION ASSAY - IC50”, the IC50 turned out to be 8.13 µM.

For `Cc1ccc(CNc2ccc3nnc(C(F)(F)F)n3n2)cc1`, the IC90 is greater than 10 µM. Besides, the IC50 (FFLUC_HILL_SLOPE 15, FFLUC_R_SQUARED 0.243, read-out: LUCIFERASE INFECTION ASSAY - IC50) is greater than 10 µM.

For the molecule `CC1CC(OCC(O)CN2CCN(c3ccc(F)cc3)CC2)CC(C)(C)C1` (stereo unspecified), the IC90 is greater than 7.31 µM. In addition, under “FFLUC_HILL_SLOPE 15.4, FFLUC_R_SQUARED 0.216, PBLUC_HILL_SLOPE 1.14, PBLUC_R_SQUARED 0.115, read-out: LUCIFERASE INFECTION ASSAY - IC50”, the IC50 is greater than 7.31 µM.

For `O=C1C=C(c2ccc(Cl)cc2)C(=O)N1Nc1ccc(Cl)cc1Cl`, the IC90 was greater than 8.98 µM. For the same molecule, the IC50 (FFLUC_HILL_SLOPE 15.4, FFLUC_R_SQUARED 0.324, HEPG2TOX_HILL_SLOPE 12.8, HEPG2TOX_R_SQUARED 0.543, PBLUC_HILL_SLOPE 10.1, PBLUC_R_SQUARED 0.012, read-out: LUCIFERASE INFECTION ASSAY - IC50) is 8.35 µM.

In the case of `Nc1nc(CNC(c2ccccc2)c2ccc(Cl)cc2)nc(Nc2ccccc2)n1` (stereo unspecified), the IC90 is greater than 10 µM. For the same molecule, the IC50 (FFLUC_HILL_SLOPE 14.9, FFLUC_R_SQUARED 0.741, read-out: LUCIFERASE INFECTION ASSAY - IC50) was greater than 10 µM.

In the case of `Cc1[nH]c2ccccc2c1/C=N/n1c(-c2ccc(Cl)cc2Cl)cs/c1=N\CC1CCCO1` (stereo unspecified), the IC90 was 6.77 µM. Also, for the setting “FFLUC_HILL_SLOPE 15.4, FFLUC_R_SQUARED 0.637, HEPG2TOX_HILL_SLOPE 0.309, HEPG2TOX_R_SQUARED 0.658, PBLUC_HILL_SLOPE 1.1, PBLUC_R_SQUARED 0.559, read-out: LUCIFERASE INFECTION ASSAY - IC50”, the IC50 was found to be 0.923 µM.

As to `O=[N+]([O-])c1cc(Cl)ccc1N1CCN(c2ncnc3sc4c(c23)CCC4)CC1`, the IC90 is greater than 10 µM. Moreover, the IC50 (FFLUC_HILL_SLOPE 15.4, FFLUC_R_SQUARED 0.646, read-out: LUCIFERASE INFECTION ASSAY - IC50) was greater than 10 µM.

For the molecule `COc1ccc(Cl)cc1NC(=O)C(C)N1CCC(c2c[nH]c3ccccc23)CC1` (stereo unspecified), the IC90 was determined as 4.83 µM. Also, the 50% inhibitory concentration (IC50) (FFLUC_HILL_SLOPE 15.4, FFLUC_R_SQUARED 0.69, PBLUC_HILL_SLOPE 100, PBLUC_R_SQUARED 0.101, read-out: LUCIFERASE INFECTION ASSAY - IC50) was found to be 4.73 µM.

Regarding `O=C(NC1CCN(Cc2ccccc2)C1)c1cc2cc(Br)ccc2[nH]1` (stereo unspecified), the IC90 was greater than 10 µM. Besides, the IC50 (FFLUC_HILL_SLOPE 15.5, FFLUC_R_SQUARED 0.545, HEPG2TOX_HILL_SLOPE 1.06, HEPG2TOX_R_SQUARED 0.919, PBLUC_HILL_SLOPE 3.35, PBLUC_R_SQUARED 0.069, read-out: LUCIFERASE INFECTION ASSAY - IC50) is 7.09 µM.

As for `c1ccc(Sc2c(-c3ccccc3)cc3ccccn23)cc1`, the IC90 came to 9.91 µM. In addition, the IC50 (FFLUC_HILL_SLOPE 15.3, FFLUC_R_SQUARED 0.586, PBLUC_HILL_SLOPE 15.5, PBLUC_R_SQUARED 0.389, read-out: LUCIFERASE INFECTION ASSAY - IC50) amounted to 8.6 µM.

On to `Cc1cc(C)c(-c2csc(NC(=O)c3cc(-c4ccccc4)nn3-c3ccccc3)n2)c(C)c1`, for which the IC90 was greater than 10 µM. For the same molecule, the IC50 (FFLUC_HILL_SLOPE 15.4, FFLUC_R_SQUARED 0.775, read-out: LUCIFERASE INFECTION ASSAY - IC50) was greater than 10 µM.

As to `OCc1ccc(-c2cnc3ccc(-c4cccc(OC(F)(F)F)c4)nn23)cc1`, the IC90 was found to be 3.46 µM. For the same molecule, for the setting “FFLUC_HILL_SLOPE 15.5, FFLUC_R_SQUARED 0.126, HEPG2TOX_HILL_SLOPE 8.34, HEPG2TOX_R_SQUARED 0.955, PBLUC_HILL_SLOPE 1.79, PBLUC_R_SQUARED 0.869, read-out: LUCIFERASE INFECTION ASSAY - IC50”, the IC50 worked out at 1.01 µM.

With `O=C(c1cn(-c2ccccc2)nc1-c1cccs1)N1c2ccccc2CCc2ccccc21`, the 90% effect concentration (IC90) is greater than 10 µM. Moreover, the IC50 (FFLUC_HILL_SLOPE 15.3, FFLUC_R_SQUARED 0.476, HEPG2TOX_HILL_SLOPE 1.99, HEPG2TOX_R_SQUARED 0.329, PBLUC_HILL_SLOPE 2.58, PBLUC_R_SQUARED 0.689, read-out: LUCIFERASE INFECTION ASSAY - IC50) amounted to 6.76 µM.

As for `COc1ccc(-c2csc3ncnc(NC4CCN(S(C)(=O)=O)CC4)c23)cc1`, the IC90 was greater than 10 µM. Also, the IC50 (FFLUC_HILL_SLOPE 15, FFLUC_R_SQUARED 0.503, HEPG2TOX_HILL_SLOPE 1.74, HEPG2TOX_R_SQUARED 0.848, read-out: LUCIFERASE INFECTION ASSAY - IC50) is greater than 10 µM.

Consider `COc1cc([N+](=O)[O-])ccc1NC(=O)COC(=O)c1c(C)nn(Cc2ccc(Cl)cc2Cl)c1Cl`, for which the IC90 is greater than 10 µM. In addition, where the note is “FFLUC_HILL_SLOPE 15, FFLUC_R_SQUARED 0.28, read-out: LUCIFERASE INFECTION ASSAY - IC50”, the IC50 was greater than 10 µM.

In the case of `CCCn1c(NC(=O)C2CCCN(S(=O)(=O)c3cccs3)C2)nc2ccccc21` (stereo unspecified), the IC90 was greater than 10 µM. For the same molecule, for the setting “FFLUC_HILL_SLOPE 15.6, FFLUC_R_SQUARED 0.229, read-out: LUCIFERASE INFECTION ASSAY - IC50”, the IC50 is greater than 10 µM.

Take `N#Cc1ccc(/C=N/NC(=O)c2ccc(COc3ccccc3-c3ccccc3)cc2)cc1`: the IC90 was determined as 9.24 µM. The IC50 (FFLUC_HILL_SLOPE 15.4, FFLUC_R_SQUARED 0.374, HEPG2TOX_HILL_SLOPE 8.76, HEPG2TOX_R_SQUARED 0.561, PBLUC_HILL_SLOPE 30.2, PBLUC_R_SQUARED 0.437, read-out: LUCIFERASE INFECTION ASSAY - IC50) worked out at 8.6 µM.

With `COc1cc(NC(=O)c2sccc2Oc2ccc(C(F)(F)F)cc2[N+](=O)[O-])c(Cl)cc1Cl`, the IC90 was found to be 5.34 µM. The half-inhibitory concentration (IC50) (FFLUC_HILL_SLOPE 15.3, FFLUC_R_SQUARED 0.803, PBLUC_HILL_SLOPE 1.96, PBLUC_R_SQUARED 0.575, read-out: LUCIFERASE INFECTION ASSAY - IC50) was 1.74 µM.
